# From patent US9044481B2 (GlaxoSmithKline Biologicals S.A., priority 2009, dated 2015)
# Tested on: C57BL/6 female mice
# Assay: Innate cytokines and chemokines in sera of vaccinated mice (SIV-p27 model, AS01B + TLR7-L liposomes)
# Type: in vivo
# Settings: for IL-6 in sera / TNF-α in sera / chemokine MCP-1 in sera: after injection, DPPC liposomes with SIV-p27 and AS01B, vs AS01B reference group
# Excerpt: We evaluated the capacity of TLR7 ligands to promote various aspects of the immune response in mice. Innate immunity was specifically investigated to conclude whether lipidated TLR7 compounds were able to induce innate chemokines and pro-inflammatory cytokines. This innate immune response provides the body with initial, non-specific protection against pathogens. Among these innate chemokines and cytokines, type I IFN is thought to be required for the programming of naïve CD8 T-cell with respect to survival, differentiation and memory development.
# 10.4 ml of lipidated-TLR7-L A1 at 10 mg/ml in chloroform were transferred into a round-bottomed glass vial. To this vial were added 18.4 ml of DPPC solubilised in chloroform at 100 mg/ml. 21.9 ml of lipidated-TLR7-L compound A3 solubilized at 5 mg/ml in chloroform were transferred into a round-bottomed glass vial. To this vial were added 20 ml of DPPC solubilised in chloroform at 100 mg/ml. Chloroform was evaporated in a Büchi Rotavapor under slow decrease of pressure. The obtained film was further dessicated at least overnight in a dessicator under vacuum. After that, the lipid film was slowly hydrated on an orbital shaker (maximal speed: 250 rpm) using 50 mM PO4-100 mM NaCl, pH 7 buffer pre-heated at 60° C.
# After completion of resuspension, a swelling step was carried out in order to further increase the phospholipid hydration, it consists of incubating the preparation at room temperature. The suspension was then pre-homogenized using a rotor-stator homogenizer (X620 CAT) for 12 min at 8000 rpm.
# Microfluidization was then carried out using a microfluidizer (Model 110S-Serial 90181-Microfluidics Corporation) at 6 bars while keeping the microfluidization chamber at about 40° C. Sterile filtration was achieved on a PES filter (GD/X 0.2 μm, 25 mm, Whatman).
# Lipidated molecules A3 and A1 were evaluated in vivo. The SIV-p27-containing formulations summarized in Table 1 were used to vaccinate 6-8 week old C57BL/6 female mice (10/group). The mice received two intramuscular injections of 50 μl, 14 days apart and were bled at different time points after prime and boost as illustrated in FIG. 1.
# The innate and adaptive immune responses induced by the formulations containing the TLR7 agonists and the proprietary AS01B adjuvant (QS21+MPL) were also compared to the one induced by the corresponding AS01B-containing formulations and empty DPPC liposomes.
SMILES,IL-6 in sera,TNF-α in sera,chemokine MCP-1 in sera,relative potency in enhancing inflammatory cytokines TNF-α and IL-6 (comparison of A1 and A3 in DPPC liposome formulations)
CCCCCCCCCCCCCCCC(=O)OC[C@H](COP(=O)(O)OCCN1CCC(Cn2c(O)nc3c(N)nc(OCCCC)nc32)CC1)OC(=O)CCCCCCCCCCCCCCC [Compound A1],enhanced,enhanced,enhanced,more potent than A3
"CCCCCCCCCCCCCCCC(=O)OC[C@H](COP(=O)(O)N1CCN(CCn2c(O)nc3c(N)nc(OCCCC)nc32)CC1)OC(=O)CCCCCCCCCCCCCCC [Compound A3, 6-Amino-2-butoxy-9-[1-(1,2-dipalmitoyl-sn-glycero-3-phosphoramido)-4-piperazinylethyl]-8-hydroxypurine]",enhanced,enhanced,enhanced,
